Patent US12673975B2, “Cyclic peptide, cell scaffold material, cell separating material, and medium” (FUJIFILM Corporation, priority 2019, dated 2026)
Starred links: 1 amine or outer side, 2 acyl side, 3 side chain; linkers in the order of their positions; H or OH if unused. Positions of bridges follow the written chain, without caps; N, C: chain ends. Non-standard residues stand in square brackets, D forms with d. Residues, ends and D or L forms follow the SMILES beside them. hCys = N[C@@H](CCS)C(=O)O; Dab = NCC[C@H](N)C(=O)O; Dap = NC[C@H](N)C(=O)O; X1 = O=C(C[*:2])[*:1]; X2 = O=C(C[*:1])[*:2]; βAla = NCCC(=O)O

Tests used:
human integrin αvβ5 = human integrin αvβ5 (Homo sapiens, UniProt P06756+P18084); experiment: Evaluation of integrin binding property (surface plasmon resonance, Biacore 3000, immobilized cyclic peptide); conditions: SPR, 25° C., HEPES buffer with 5 mM magnesium chloride, integrin 30-1,000 nM; read-out: Performance evaluation: Binding activity (dissociation constant between the cyclic peptide and human integrin αvβ5)
In short: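 Human αvβ5 (30-1,000 nM) flowed for 10 min at 25 °C over immobilized cyclic peptide in 20 mM HEPES, 150 mM NaCl, 5 mM MgCl2, pH 7.4, followed by 30 min running buffer and 0.5 M EDTA regeneration. Dissociation constant from peptide minus unimmobilized channel, scored into standard grades.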

[1] = Evaluation of molecule stability (alkali treatment, residual rate by LC/MS); format: physicochemical; conditions: 500 μM peptide aqueous solution plus equivalent of 1 M sodium hydroxide, 15° C., 3 hours, LC/MS peak area
In short: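 Stability read as percent of summed LC/MS peak area remaining versus untreated peptide (C18, 45 °C, 10 mM ammonium formate pH 3, ESI positive/negative). Treatment: 500 μM peptide in water plus an equivalent of 1 M NaOH, 15 °C for 3 hours.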

Sequence of human integrin αvβ5 (P06756 31-1048): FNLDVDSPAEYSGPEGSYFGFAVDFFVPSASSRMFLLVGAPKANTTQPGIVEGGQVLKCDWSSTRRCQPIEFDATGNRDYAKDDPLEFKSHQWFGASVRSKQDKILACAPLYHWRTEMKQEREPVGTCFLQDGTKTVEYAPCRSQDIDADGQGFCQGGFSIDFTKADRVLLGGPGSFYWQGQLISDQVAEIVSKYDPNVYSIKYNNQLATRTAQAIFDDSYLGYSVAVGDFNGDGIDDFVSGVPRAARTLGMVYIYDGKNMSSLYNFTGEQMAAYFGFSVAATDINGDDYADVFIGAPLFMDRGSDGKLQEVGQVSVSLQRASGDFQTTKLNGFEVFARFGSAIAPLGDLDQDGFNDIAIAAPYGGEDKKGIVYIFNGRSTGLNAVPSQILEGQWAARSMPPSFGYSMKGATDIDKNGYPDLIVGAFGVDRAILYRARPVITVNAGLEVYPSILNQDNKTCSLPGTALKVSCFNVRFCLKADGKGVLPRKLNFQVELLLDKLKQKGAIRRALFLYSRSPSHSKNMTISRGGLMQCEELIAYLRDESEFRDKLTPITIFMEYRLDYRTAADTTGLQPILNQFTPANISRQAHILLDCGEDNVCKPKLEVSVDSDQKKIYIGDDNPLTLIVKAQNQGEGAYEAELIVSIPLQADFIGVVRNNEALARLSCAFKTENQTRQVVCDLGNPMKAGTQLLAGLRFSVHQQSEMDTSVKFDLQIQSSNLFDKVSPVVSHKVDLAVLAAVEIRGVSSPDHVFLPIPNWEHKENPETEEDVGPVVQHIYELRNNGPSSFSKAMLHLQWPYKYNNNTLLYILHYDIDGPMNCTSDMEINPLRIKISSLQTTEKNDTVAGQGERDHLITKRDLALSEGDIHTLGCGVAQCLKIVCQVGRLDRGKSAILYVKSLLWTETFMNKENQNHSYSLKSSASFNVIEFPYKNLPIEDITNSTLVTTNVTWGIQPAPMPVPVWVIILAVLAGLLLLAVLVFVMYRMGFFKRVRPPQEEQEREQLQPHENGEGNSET
Sequence of human integrin αvβ5 (P18084 24-799): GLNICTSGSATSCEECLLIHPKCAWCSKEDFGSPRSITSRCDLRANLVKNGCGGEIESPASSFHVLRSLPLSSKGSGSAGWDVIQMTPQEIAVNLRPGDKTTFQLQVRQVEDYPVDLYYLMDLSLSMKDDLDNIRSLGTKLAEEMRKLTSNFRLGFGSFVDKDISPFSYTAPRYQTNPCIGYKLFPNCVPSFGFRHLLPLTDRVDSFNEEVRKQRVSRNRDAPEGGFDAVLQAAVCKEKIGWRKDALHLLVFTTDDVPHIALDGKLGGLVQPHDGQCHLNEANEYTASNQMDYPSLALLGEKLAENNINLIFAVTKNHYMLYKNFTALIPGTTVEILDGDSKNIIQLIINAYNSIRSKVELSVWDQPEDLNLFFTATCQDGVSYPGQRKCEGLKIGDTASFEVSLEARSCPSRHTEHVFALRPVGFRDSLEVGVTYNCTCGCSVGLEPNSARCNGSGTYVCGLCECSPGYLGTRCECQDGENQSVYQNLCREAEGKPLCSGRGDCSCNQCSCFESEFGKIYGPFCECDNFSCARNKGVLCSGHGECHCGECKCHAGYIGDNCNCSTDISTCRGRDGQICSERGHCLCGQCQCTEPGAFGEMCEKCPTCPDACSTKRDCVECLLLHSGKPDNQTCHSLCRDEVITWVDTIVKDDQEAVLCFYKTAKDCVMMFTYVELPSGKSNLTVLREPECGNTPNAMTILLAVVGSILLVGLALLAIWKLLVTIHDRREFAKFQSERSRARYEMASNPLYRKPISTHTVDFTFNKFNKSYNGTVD

Compound | Kd (human integrin αvβ5) | Performance evaluation: Stability (residual rate of cyclic peptide after alkali treatment) [1]
C[C@H](NC(=O)[C@@H]1CCNC(=O)CSCC[C@H](NC(=O)[C@H](C)NC(=O)[C@H](CCCCN)NC(=O)[C@H](CCCCN)NC(=O)[C@@H](N)CCCCN)C(=O)N[C@@H](CCC(=O)O)C(=O)N2CCC[C@H]2C(=O)N[C@@H](CCCNC(=N)N)C(=O)NCC(=O)N[C@@H](CC(=O)O)C(=O)N[C@@H](CC(N)=O)C(=O)N[C@@H](Cc2ccc(O)cc2)C(=O)N[C@@H](CCCNC(=N)N)C(=O)N1)C(=O)O [Cyclic peptide 41, KKKA-(Hcy)-EPRGDNYR(Dab(acetyl))A] (H-KKKA[hCys]EPRGDNYR[Dab]A-OH; linker 5-14 via X2) | 50 to 100 nM | A (The residual rate of the cyclic peptide is 70% or more.)
C[C@H](NC(=O)[C@H](CCCCN)NC(=O)[C@H](CCCCN)NC(=O)[C@@H](N)CCCCN)C(=O)N[C@H]1CCSCC(=O)NCC[C@@H](C(=O)N[C@@H](CC(=O)O)C(=O)O)NC(=O)[C@H](CCCNC(=N)N)NC(=O)[C@H](Cc2ccc(O)cc2)NC(=O)[C@H](CC(N)=O)NC(=O)[C@H](CC(=O)O)NC(=O)CNC(=O)[C@H](CCCNC(=N)N)NC(=O)[C@@H]2CCCN2C(=O)[C@H](CCC(=O)O)NC1=O [Cyclic peptide 42, KKKA-(Hcy)-EPRGDNYR(Dab(acetyl))D] (H-KKKA[hCys]EPRGDNYR[Dab]D-OH; linker 5-14 via X2) | 50 to 100 nM | A (The residual rate of the cyclic peptide is 70% or more.)
C[C@H](NC(=O)[C@H](CCCCN)NC(=O)[C@H](CCCCN)NC(=O)[C@@H](N)CCCCN)C(=O)N[C@H]1CCSCC(=O)NCC[C@@H](C(=O)N[C@@H](CCC(=O)O)C(=O)O)NC(=O)[C@H](CCCNC(=N)N)NC(=O)[C@H](Cc2ccc(O)cc2)NC(=O)[C@H](CC(N)=O)NC(=O)[C@H](CC(=O)O)NC(=O)CNC(=O)[C@H](CCCNC(=N)N)NC(=O)[C@@H]2CCCN2C(=O)[C@H](CCC(=O)O)NC1=O [Cyclic peptide 43, KKKA-(Hcy)-EPRGDNYR(Dab(acetyl))E] (H-KKKA[hCys]EPRGDNYR[Dab]E-OH; linker 5-14 via X2) | 50 to 100 nM | A (The residual rate of the cyclic peptide is 70% or more.)
N=C(N)NCCC[C@@H]1NC(=O)[C@H](Cc2ccc(O)cc2)NC(=O)[C@H](CC(N)=O)NC(=O)[C@H](CC(=O)O)NC(=O)CNC(=O)[C@H](CCCNC(=N)N)NC(=O)[C@@H]2CCCN2C(=O)[C@H](CCC(=O)O)NC(=O)[C@@H](NC(=O)[C@H](CCCCN)NC(=O)[C@H](CCCCN)NC(=O)[C@@H](N)CCCCN)CCSCC(=O)NCC[C@@H](C(=O)O)NC1=O [Cyclic peptide 44, KKK-(Hcy)-EPRGDNYR(Dab(acetyl))] (H-KKK[hCys]EPRGDNYR[Dab]-OH; linker 4-13 via X2) | 50 to 100 nM | A (The residual rate of the cyclic peptide is 70% or more.)
C[C@H](NC(=O)[C@H](CCCCN)NC(=O)[C@H](CCCCN)NC(=O)[C@@H](N)CCCCN)C(=O)N[C@H]1CCSCC(=O)NCC[C@@H](C(=O)O)NC(=O)[C@H](CCCNC(=N)N)NC(=O)[C@H](Cc2ccc(O)cc2)NC(=O)[C@H](CC(N)=O)NC(=O)[C@H](CC(=O)O)NC(=O)CNC(=O)[C@H](CCCNC(=N)N)NC(=O)[C@@H]2CCCN2C(=O)[C@H](CCC(=O)O)NC1=O [Cyclic peptide 45, KKKA-(Hcy)-EPRGDNYR(Dab(acetyl))] (H-KKKA[hCys]EPRGDNYR[Dab]-OH; linker 5-14 via X2) | 50 to 100 nM | A (The residual rate of the cyclic peptide is 70% or more.)
N=C(N)NCCC[C@@H]1NC(=O)[C@H](Cc2ccc(O)cc2)NC(=O)[C@H](CC(N)=O)NC(=O)[C@H](CC(=O)O)NC(=O)CNC(=O)[C@H](CCCNC(=N)N)NC(=O)[C@@H]2CCCN2C(=O)[C@H](CCC(=O)O)NC(=O)[C@@H](NC(=O)[C@H](CCCCN)NC(=O)[C@H](CCCCN)NC(=O)[C@@H](N)CCCCN)CNC(=O)CSCC[C@@H](C(=O)O)NC1=O [Cyclic peptide 46, KKK(Dap(acetyl))EPRGDNYR-(Hcy)] (H-KKK[Dap]EPRGDNYR[hCys]-OH; linker 4-13 via X1) | 50 to 100 nM | B (The residual rate of the cyclic peptide is 50% or more and less than 70%.)
C[C@H](NC(=O)[C@H](CCCCN)NC(=O)[C@H](CCCCN)NC(=O)[C@@H](N)CCCCN)C(=O)N[C@H]1CNC(=O)CSCC[C@@H](C(=O)O)NC(=O)[C@H](CCCNC(=N)N)NC(=O)[C@H](Cc2ccc(O)cc2)NC(=O)[C@H](CC(N)=O)NC(=O)[C@H](CC(=O)O)NC(=O)CNC(=O)[C@H](CCCNC(=N)N)NC(=O)[C@@H]2CCCN2C(=O)[C@H](CCC(=O)O)NC1=O [Cyclic peptide 47, KKKA(Dap(acetyl))EPRGDNYR-(Hcy)] (H-KKKA[Dap]EPRGDNYR[hCys]-OH; linker 5-14 via X1) | 50 to 100 nM | B (The residual rate of the cyclic peptide is 50% or more and less than 70%.)
C[C@H](NC(=O)[C@H](CCCCN)NC(=O)[C@H](CCCCN)NC(=O)[C@@H](N)CCCCN)C(=O)N[C@H]1CNC(=O)CSCC[C@@H](C(=O)N[C@@H](CC(=O)O)C(=O)O)NC(=O)[C@H](CCCNC(=N)N)NC(=O)[C@H](Cc2ccc(O)cc2)NC(=O)[C@H](CC(N)=O)NC(=O)[C@H](CC(=O)O)NC(=O)CNC(=O)[C@H](CCCNC(=N)N)NC(=O)[C@@H]2CCCN2C(=O)[C@H](CCC(=O)O)NC1=O [Cyclic peptide 48, KKKA(Dap(acetyl))EPRGDNYR-(Hcy)-D] (H-KKKA[Dap]EPRGDNYR[hCys]D-OH; linker 5-14 via X1) | < 50 nM | B (The residual rate of the cyclic peptide is 50% or more and less than 70%.)
N=C(N)NCCC[C@@H]1NC(=O)[C@H](Cc2ccc(O)cc2)NC(=O)[C@H](CC(N)=O)NC(=O)[C@H](CC(=O)O)NC(=O)CNC(=O)[C@H](CCCNC(=N)N)NC(=O)[C@@H]2CCCN2C(=O)[C@H](CCC(=O)O)NC(=O)[C@@H](NC(=O)[C@H](CCCCN)NC(=O)[C@H](CCCCN)NC(=O)[C@@H](N)CCCCN)CCSCC(=O)NCC[C@@H](C(N)=O)NC1=O [Cyclic peptide 49, KKK-(Hcy)-EPRGDNYR(Dab(acetyl))] (H-KKK[hCys]EPRGDNYR[Dab]-NH2; linker 4-13 via X2) | 50 to 100 nM | A (The residual rate of the cyclic peptide is 70% or more.)
C[C@H](NC(=O)[C@H](CCCCN)NC(=O)[C@H](CCCCN)NC(=O)[C@@H](N)CCCCN)C(=O)N[C@H]1CCSCC(=O)NCC[C@@H](C(N)=O)NC(=O)[C@H](CCCNC(=N)N)NC(=O)[C@H](Cc2ccc(O)cc2)NC(=O)[C@H](CC(N)=O)NC(=O)[C@H](CC(=O)O)NC(=O)CNC(=O)[C@H](CCCNC(=N)N)NC(=O)[C@@H]2CCCN2C(=O)[C@H](CCC(=O)O)NC1=O [Cyclic peptide 50, KKKA-(Hcy)-EPRGDNYR(Dab(acetyl))] (H-KKKA[hCys]EPRGDNYR[Dab]-NH2; linker 5-14 via X2) | 100 to 200 nM | A (The residual rate of the cyclic peptide is 70% or more.)
N=C(N)NCCC[C@@H]1NC(=O)[C@H](Cc2ccc(O)cc2)NC(=O)[C@H](CC(N)=O)NC(=O)[C@H](CC(=O)O)NC(=O)CNC(=O)[C@H](CCCNC(=N)N)NC(=O)[C@@H]2CCCN2C(=O)[C@H](CCC(=O)O)NC(=O)[C@@H](NC(=O)CCNC(=O)[C@H](CCCCN)NC(=O)[C@H](CCCCN)NC(=O)[C@@H](N)CCCCN)CCSCC(=O)NCC[C@@H](C(N)=O)NC1=O [Cyclic peptide 51, KKKβA-(Hcy)-EPRGDNYR(Dab(acetyl))] (H-KKK[βAla][hCys]EPRGDNYR[Dab]-NH2; linker 5-14 via X2) | 100 to 200 nM | A (The residual rate of the cyclic peptide is 70% or more.)
N=C(N)NCCC[C@@H]1NC(=O)[C@H](Cc2ccc(O)cc2)NC(=O)[C@H](CC(N)=O)NC(=O)[C@H](CC(=O)O)NC(=O)CNC(=O)[C@H](CCCNC(=N)N)NC(=O)[C@@H]2CCCN2C(=O)[C@H](CCC(=O)O)NC(=O)[C@@H](NC(=O)[C@H](CCCCN)NC(=O)[C@H](CCCCN)NC(=O)[C@@H](N)CCCCN)CNC(=O)CSCC[C@@H](C(N)=O)NC1=O [Cyclic peptide 52, KKK(Dap(acetyl))EPRGDNYR-(Hcy)] (H-KKK[Dap]EPRGDNYR[hCys]-NH2; linker 4-13 via X1) | 50 to 100 nM | B (The residual rate of the cyclic peptide is 50% or more and less than 70%.)
C[C@H](NC(=O)[C@H](CCCCN)NC(=O)[C@H](CCCCN)NC(=O)[C@@H](N)CCCCN)C(=O)N[C@H]1CNC(=O)CSCC[C@@H](C(N)=O)NC(=O)[C@H](CCCNC(=N)N)NC(=O)[C@H](Cc2ccc(O)cc2)NC(=O)[C@H](CC(N)=O)NC(=O)[C@H](CC(=O)O)NC(=O)CNC(=O)[C@H](CCCNC(=N)N)NC(=O)[C@@H]2CCCN2C(=O)[C@H](CCC(=O)O)NC1=O [Cyclic peptide 53, KKKA(Dap(acetyl))EPRGDNYR-(Hcy)] (H-KKKA[Dap]EPRGDNYR[hCys]-NH2; linker 5-14 via X1) | 50 to 100 nM | B (The residual rate of the cyclic peptide is 50% or more and less than 70%.)
